Patent US20080194678A1, “Process To Obtain Synthetic And Semi-Synthetic Lignan Derivatives, Their Antiparasitic Activities And Corresponding Pharmaceutical Formulations, Including The Therapeutic Method Using Said Lignan For The Treatment Of Parasitosis” (Fundacao de Amparo a Pesquissa do Estado de Aao Pa, priority 2005, published 2008)
“Also recorded” adds a separate entry of the source. Like-named read-outs stand apart in the source and are kept apart here.

How the values were obtained:
S. mansoni [1] = assay: Couples of S. mansoni recovered from infected BALB/c mice by perfusion after treatment; format: in vivo, Schistosoma mansoni; conditions: for number of S. mansoni recovered / couples of S. mansoni recovered in the treated group / efficacy: BALB/c mice; for number of S. mansoni recovered / efficacy: single dose 10 mg/kg after 40 days of infection; for couples of S. mansoni recovered in the treated group: single dose 10 mg/kg after 40 days of infection (approx. 200 cercariae), untreated group 40 couples/animal; for reduction of the viable worms: 10 mg/kg of weight, after 40 days of infection with S. mansoni
Method: FIG. 8—graph with the number of recovered worms vs. effect of the drug. Couples of S. mansoni recovered from BALB/c mice by perfusion of the door-kidney system. Five mice, after 40 days of infection (approximately 200 cercariae), were submitted to test with a single dose of the drug dinitrocubebine (10 mg/kg of weight). In the group untreated (negative control treated only with a 5% dimethyl sulfoxide solution in water), 40 couples/animal were recovered. In the treated group, only 5 couples were recovered. […] FIG. 9—graph with the number of recovered worms vs. effect of the drug. Couples of S. mansoni recovered from BALB/c mice by perfusion of the door-kidney system. Five mice, after 40 days of infection (approximately 200 cercariae), were submitted to test with a single dose of the drug methylcubebin (10 mg/kg of weight). In the untreated group (negative control treated only with a 5% dimethyl sulfoxide solution in water), 40 couples/animal were recovered. In the treated group, only five couples were recovered. […] In in vivo tests, the drugs (−)—O-methylcubebin (6) and (−)-6,6′-dinitronokinin (8) presented results similar to the obtained with praziquantel, in the same concentration (10 mg/kg of weight), i.e. reduction of approximately 90% of the viable worms, after 40 days of infection with S. mansoni. […] Such a result was extremely important and promising, since the drug was given to the parasites when they were still maturing and had not yet reached the evolutive form of adult worms. […] Thus, the developed medicine may be used not only as a healing drug, but also as a prophylactic drug in the combat against schistosomosis. Another advantage relates to the low toxicity of these substances for use in antiparasitic therapeutics, since many of these derivatives have hepatic-protecting and antioxidant action. Thus, the use of these lignans certainly offers higher safety for therapeutic use than praziquantel. So, the use of these substances in medicines for longer treatments is safer than with praziquantel and they have nearly no significant side effects. Finally, this group of substances is obtained from natural sources, which is not applicable to praziquantel.

Schistosoma [2] = assay: Schistosomicidal activity (test not specified)
[3] = test system: Schistosoma mansoni (evolutive stage of adult worm); assay: In vitro culture of Schistosoma mansoni adult worm couples (motility, separation, egglaying, tegument, death); format: cell-based; conditions: for time to considerable increase in the motility of parasite couples / time to separation of parasite couples: 14.0 and 7.0 μg/ml; for change in tegument or death of parasites: worms analyzed for 5 days
Method: FIG. 1—effect of the drugs (−)-hinokinin (3) and (−)-O—(N,N-dimethylamino-ethyl) cubebin (4), in concentrations of 14, 7.5 and 3.5 μg/ml, under the parasite Schistosoma mansoni's egglaying during 5 days of culture.
FIG. 2—effect of the drug (−)-6,6-dinitroinokinin (8), in concentrations of 14, 7.5 and 3.5 μg/ml, under the parasite Schistosoma mansoni's egglaying during 5 days of culture.
FIG. 3—effect of the drug (−)—O-methylcubebin (5), in concentrations of 14, 7.5 and 3.5 μg/ml, under the parasite Schistosoma mansoni's egglaying during 5 days of culture
FIG. 4—parasite Schistosoma mansoni (evolutive stage of adult worm) cultivated in vitro in RPMI 1640 medium, in 5% CO2 atmosphere at 37° C. for 24 hours, in the absence and presence of the drug (−)-6,6-dinitroinokinin (8). A and C, male and female parasites, respectively, cultivated in the absence of substances. B and D, male and female parasite, respectively, cultivated in the presence of the Drug (the same effect was noticed in concentrations of 14.0, 7.0 and 3.0 μg/ml) Inverted light microscope, 4× magnification.
Two hours after the addition of substances 3 and 5 in concentrations of 14.0 and 7.0 μg/ml, considerable increase in the motility of parasite couples was noticed, ending up with their separation after 18 hours.

S. mansoni [4] = assay: Couples of S. mansoni recovered from infected BALB/c mice by perfusion after treatment; format: in vivo, Schistosoma mansoni; conditions: after 7 and 21 days of infection
[5] = test system: Schistosoma mansoni (evolutive stage of adult worm); assay: In vitro culture of Schistosoma mansoni adult worm couples (motility, separation, egglaying, tegument, death); format: cell-based; conditions: 14.0, 7.0 and 3.5 μg/ml
Schistosoma [6] = conditions: cited from earlier work; for side effects: patients
S. mansoni [7] = conditions: vertebrate host; cited from earlier work
[8] = 3.5 μg/ml, after 24 hours of culture

O=[N+]([O-])c1cc2c(cc1CC1COC(O)C1Cc1cc3c(cc1[N+](=O)[O-])OCO3)OCO2 (single isomer, unassigned; (-)) [8a, (−)-6,6′-dinitrocubebin]
number of S. mansoni recovered (S. mansoni [1]): about 10%
couples of S. mansoni recovered in the treated group (S. mansoni [1]): 5 couples
schistosomicidal activity (Schistosoma [2]): significant schistosomicidal activity

CC(=O)OC1OC[C@H](Cc2ccc3c(c2)OCO3)[C@H]1Cc1ccc2c(c1)OCO2 (single isomer, unassigned; (-)) [compound 4, (−)-O-acetylcubebin]
schistosomicidal activity (Schistosoma [2]): significant schistosomicidal activity

CN(C)CCOC1OCC(Cc2ccc3c(c2)OCO3)C1Cc1ccc2c(c1)OCO2 (single isomer, unassigned; (-)) [compound 5, (−)-O—(N,N-dimethylaminoethyl)-cubebin]
time to increase in the motility of couples ([3]; 3.5 μg/ml): 24 h
time to separation of the couples ([3]; 3.5 μg/ml): 36 h
effect on egglaying [3, 8]: considerable reduction of egglaying
time to considerable increase in the motility of parasite couples [3]: Two
time to separation of parasite couples [3]: 18 h
change in tegument or death of parasites ([3]; 14.0, 7.0 and 3.5 μg/ml): no apparent change in tegument or death of parasites
schistosomicidal activity (Schistosoma [2]): significant schistosomicidal activity

COC1OC[C@@H](Cc2ccc3c(c2)OCO3)[C@@H]1Cc1ccc2c(c1)OCO2 (single isomer, unassigned; (-)) [compound 6, (−)-O-methylcubebin]
reduction of the viable worms (S. mansoni [1]): approximately 90%
efficacy (S. mansoni [1]): around 93%
number of S. mansoni recovered (S. mansoni [1]): about 10%
couples of S. mansoni recovered in the treated group (S. mansoni [1]): five
increase in motility of couples ([3]; 14, 7.5 and 3.5 μg/ml): increased the motility of couples after the first hour of culture
time to separation of the parasites ([3]; 14, 7.5 and 3.5 μg/ml): ≤ 12 h
reduction of the viable worms (S. mansoni [4]; two doses 10 mg/kg of weight): approximately 90%
action on intermediary forms of the parasite (schistosomulus) in the vertebrate host (S. mansoni [4]; two doses 10 mg/kg): also acts on the intermediary forms of the parasite (schistosomulus)
schistosomicidal activity (Schistosoma [2]): significant schistosomicidal activity
tegument (cutaneous) lesions in male and female parasites [5]: did not produce cutaneous lesions

c1ccc(COC2OC[C@@H](Cc3ccc4c(c3)OCO4)[C@@H]2Cc2ccc3c(c2)OCO3)cc1 (single isomer, unassigned; (-)) [compound 7, (−)-O-benzylcubebin]
schistosomicidal activity (Schistosoma [2]): significant schistosomicidal activity

Nc1cc2c(cc1CC1COC(=O)C1Cc1cc3c(cc1N)OCO3)OCO2 (single isomer, unassigned; (-)) [compound 9, (−)-6,6′-diaminonokinin]
schistosomicidal activity (Schistosoma [2]): significant schistosomicidal activity

COc1ccc([C@H]2O[C@@H](c3ccc(OC)c(OC)c3)[C@H](C)[C@@H]2C)cc1OC [14b, galgravin]
schistosomicidal activity (Schistosoma [2]): significant schistosomicidal activity

COc1cc([C@H]2O[C@@H](c3ccc(OC)c(OC)c3)[C@H](C)[C@@H]2C)ccc1O [14c, nectandrin A]
schistosomicidal activity (Schistosoma [2]): significant schistosomicidal activity

COc1cc([C@H]2O[C@@H](c3ccc(O)c(OC)c3)[C@H](C)[C@@H]2C)ccc1O [14d, nectandrin B]
schistosomicidal activity (Schistosoma [2]): significant schistosomicidal activity

COc1ccc([C@H]2O[C@@H](c3ccc(OC)c(OC)c3)[C@H](C)[C@H]2C)cc1OC [15b, veragensin]
schistosomicidal activity (Schistosoma [2]): significant schistosomicidal activity

COc1ccc([C@H]2O[C@H](c3ccc(OC)c(OC)c3)[C@@H](C)[C@H]2C)cc1OC [16a, ganschisandrin]
schistosomicidal activity (Schistosoma [2]): significant schistosomicidal activity

CC(C)NCC1CCc2cc(CO)c([N+](=O)[O-])cc2N1 (stereo not shown) [Oxamniquin, oxamniquin]
cases in which the drug is effective (Schistosoma [6]; adults): about 80%
cases in which the drug is effective (Schistosoma [6]; children): ~65%
side effects (Schistosoma [6]): cephalgia, sleepiness, nausea, tremors and rarely convulsions

COc1ccc(C[C@H]2C(=O)OC[C@@H]2Cc2ccc3c(c2)OCO3)cc1OC [compound 1, (−)-methylpluviatolide]
schistosomicidal activity (Schistosoma [2]): significant schistosomicidal activity

O[C@H]1OC[C@H](Cc2ccc3c(c2)OCO3)[C@H]1Cc1ccc2c(c1)OCO2 [compound 2, (−)-cubebin]
schistosomicidal activity (Schistosoma [2]): significant schistosomicidal activity

O=C1OC[C@H](Cc2ccc3c(c2)OCO3)[C@H]1Cc1ccc2c(c1)OCO2 [compound 3, (−)-hinokinin]
time to increase in the motility of couples ([3]; 3.5 μg/ml): 24 h
time to separation of the couples ([3]; 3.5 μg/ml): 36 h
effect on egglaying [3, 8]: considerable reduction of egglaying
time to considerable increase in the motility of parasite couples [3]: Two
time to separation of parasite couples [3]: 18 h
change in tegument or death of parasites ([3]; 14.0, 7.0 and 3.5 μg/ml): no apparent change in tegument or death of parasites
schistosomicidal activity (Schistosoma [2]): significant schistosomicidal activity

O=C1OC[C@H](Cc2cc3c(cc2[N+](=O)[O-])OCO3)[C@H]1Cc1cc2c(cc1[N+](=O)[O-])OCO2 [compound 8, (−)-6,6′-dinitroinokinin]
reduction of the viable worms (S. mansoni [1]): approximately 90%
efficacy (S. mansoni [1]): around 90%
time to death of parasites ([3]; 3.5 μg/ml): 36 h
time to death of parasites ([3]; 7.0 μg/ml): 24 h
time to death of parasites ([3]; 14.0 μg/ml): 20 h
death of the parasites ([3]; 14.0, 7.0 and 3.5 μg/ml): causing their death
increase in motility of couples ([3]; 14, 7.5 and 3.5 μg/ml): considerable increase in motility in the first hour of culture
time to separation of the parasites ([3]; 14, 7.5 and 3.5 μg/ml): 12 h
effect on egglaying ([3]; 14, 7.5 and 3.5 μg/ml, after separation): interruption in egglaying
schistosomicidal activity (Schistosoma [2]): significant schistosomicidal activity
tegument (cutaneous) lesions in male and female parasites [5]: strong tegument lesions in both male and female parasites; also recorded: very evident tegument lesions

COc1cc(OC)c([C@H]2[C@H](C)[C@@H](c3cc(OC)c(OC)cc3OC)O[C@H]2C)cc1OC [compound 17, magnosalicin]
schistosomicidal activity (Schistosoma [2]): significant schistosomicidal activity

O=C(C1CCCCC1)N1CC(=O)N2CCc3ccccc3C2C1 (stereo not shown) [praziquantel]
reduction of the viable worms (S. mansoni [1]): approximately 90%
side effects (Schistosoma [6]): abdominal pain, diarrhea, fever and urticaria-shaped reactions
evolutive form of S. mansoni acted on (S. mansoni [7]): acts only on the evolutive form of adult worms

aristolignine [15c]
schistosomicidal activity (Schistosoma [2]): significant schistosomicidal activity

caloptin [15a]
schistosomicidal activity (Schistosoma [2]): significant schistosomicidal activity

machilin [14a]
schistosomicidal activity (Schistosoma [2]): significant schistosomicidal activity

morelensine [1a]
schistosomicidal activity (Schistosoma [2]): significant schistosomicidal activity

nectandrin D [16b]
schistosomicidal activity (Schistosoma [2]): significant schistosomicidal activity

nectandrin E [16c]
schistosomicidal activity (Schistosoma [2]): significant schistosomicidal activity
